The first experiment addresses T1, NA transporter (Rattus norvegicus, UniProt Q63380).
T1 construct: from tissue; host or cells: rat hypothalamus synaptosomes (P2 fraction)
The experiment is described as follows: Noradrenaline (NA) uptake inhibition in rat brain synaptosomes (hypothalamus), [3H]-NA.
Conditions: not given
The class given is biochemical. The text has this: I. Method for Determining the Noradrenaline and 5HT Uptake Inhibition:
For in vitro studies, synaptosomes were freshly isolated from rat brain areas as described in the publication “The isolation of nerve endings from brain” by E. G. Gray and V. P. Whittaker, J. Anatomy 96, pages 79-88, 1962. The corresponding literature description is introduced hereby as reference and forms part of the disclosure.
The tissue (hypothalamus for determining the noradrenaline uptake inhibition and medulla and pons for determining the 5HT uptake inhibition) was homogenized in ice-cold 0.32 M sucrose (100 mg of tissue/1 ml) in a glass homogenizer with Teflon pestle using five full up and down strokes at 840 revolutions/minute. The homogenate was centrifuged at 1000 g and at 4° C. for 10 minutes. After subsequent centrifugation at 17 000 g for 55 minutes, the synaptosomes (P2 fraction) are obtained and were resuspended in 0.32 M […] (0.5 ml/100 mg of the original weight).
The respective uptake was measured in a 96-well microtiter plate. The volume was 250 μl and incubation took place at room temperature (approx. 20-25° C.) under an O2 atmosphere.
The incubation time was 7.5 minutes for [^3H]-NA and 5 minutes for [^3H]-5-HT. The 96 samples were then filtered through a Unifilter GF/B® microtiter plate (Packard) and washed with […] of incubated buffer using a “Brabdel MPXRI-96T Cell Harvester”. The Unifilter GF/B plate was dried at 55° C. for 1 h. The plate was then sealed with a Back Seal® (Packard) and 35 μl of scintillation fluid were added per well (Ultima Gold®, Packard). After sealing with a top Seal® (Packard), the radioactivity was determined, after equilibrium had been reached (about 5 h), in a “Trilux 1450 Microbeta” (Wallac).
The following characteristic data were found for the NA transporter:
The amount of protein employed in the above determination corresponded to the value disclosed in the literature, as described for example in “Protein measurement with the folin phenol reagent”, Lowry et al., J. Biol. Chem., 193, 265-275, 1951. A detailed description of the method can also be found in the literature, for example from M. Ch. Frink, H.-H. Hennies, W. Engelberger, M. Haurand and B. Wilffert (1996) Arzneim.-Forsch./Drug Res. 46 (III), 11, 1029-1036. The corresponding literature descriptions are hereby introduced as reference and form part of the disclosure.
T1 sequence (Q63380 1-617): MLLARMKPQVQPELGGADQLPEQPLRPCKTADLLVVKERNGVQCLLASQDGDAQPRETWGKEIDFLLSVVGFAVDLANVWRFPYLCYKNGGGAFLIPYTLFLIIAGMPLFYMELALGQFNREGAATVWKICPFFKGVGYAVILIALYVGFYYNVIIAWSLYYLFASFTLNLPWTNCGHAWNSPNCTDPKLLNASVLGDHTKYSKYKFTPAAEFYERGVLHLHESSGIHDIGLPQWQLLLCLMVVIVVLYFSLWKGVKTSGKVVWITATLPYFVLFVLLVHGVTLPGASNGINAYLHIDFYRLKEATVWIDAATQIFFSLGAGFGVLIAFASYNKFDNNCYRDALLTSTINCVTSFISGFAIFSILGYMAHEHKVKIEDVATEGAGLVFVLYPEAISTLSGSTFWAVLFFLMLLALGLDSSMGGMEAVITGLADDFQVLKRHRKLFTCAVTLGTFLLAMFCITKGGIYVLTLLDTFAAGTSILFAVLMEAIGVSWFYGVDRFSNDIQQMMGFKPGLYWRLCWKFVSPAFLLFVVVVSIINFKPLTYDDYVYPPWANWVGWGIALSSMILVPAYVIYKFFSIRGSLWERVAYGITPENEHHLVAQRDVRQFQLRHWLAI
Consider `O=C(Nc1noc2cccc(OCC(F)(F)F)c12)c1ccc2ccccc2c1` [Example 81, naphthalene-2-[4-(2,2,2-trifluoroethoxy)benzo[d]isoxazol-3-yl]carboxamide], for which the “NA uptake inhibition [%] conc. 10 μM” value is 65%.

Regarding `O=C(Nc1noc2cccc(F)c12)c1cc2ccccc2s1` [Example 12, benzo[b]thiophene-2-(4-fluorobenzo[d]isoxazol-3-yl)carboxamide], the “NA uptake inhibition [%] conc. 10 μM” value is on record as 60%. Still for that read-out and setting: then `O=C(Nc1noc2cc(Cl)ccc12)c1ccc2ccccc2c1` [Example 41, naphthalene-2-(6-chlorobenzo[d]isoxazol-3-yl)carboxamide], with 61%; and “furan-2-(4-dimethylaminobenzo[d]isoxazol-3-yl)carboxamide [Example 75]”, with 64%. On the same count and under the same terms, then `CN(C)c1cccc2onc(NC(=O)c3ccc4ccccc4c3)c12` [Example 67, naphthalene-2-(4-dimethylaminobenzo[d]isoxazol-3-yl)carboxamide], with 73%; and `CCCc1ccc(C(=O)Nc2noc3cccc(F)c23)cc1` [Example 58, N-(74-fluorobenzo[d]isoxazol-3-yl)-4-propylbenzamide], with 64%; and `Nc1cccc2onc(NC(=O)c3cccc4ccccc34)c12` [Example 11, naphthalene-1-(4-aminobenzo[d]isoxazol-3-yl)carboxamide], with 71%. Take `O=C(Nc1noc2c(F)cccc12)c1ccco1` [Example 63, furan-2-(7-fluorobenzo[d]isoxazol-3-yl)carboxamide]: the “NA uptake inhibition [%] conc. 10 μM” value was 64%.

As for `O=C(Nc1noc2ccc(Br)cc12)c1ccco1` [Example 50, furan-2-(5-bromobenzo[d]isoxazol-3-yl)carboxamide], the “NA uptake inhibition [%] conc. 10 μM” value turned out to be 66%. On the same count and under the same terms, the result for `O=C(Nc1noc2ccc(Br)cc12)C1CC1` [Example 8, cyclopropane(5-bromobenzo[d]isoxazol-3-yl)carboxamide] reads 62%; that for `O=C(Nc1noc2c(F)cccc12)c1ccc2ccccc2c1` [Example 57, naphthalene-2-(7-fluorobenzo[d]isoxazol-3-yl)carboxamide], 67%.

Still in this experiment, the particulars now being: conc. 10 μM.
On to `O=C(Nc1noc2cc(Cl)ccc12)c1ccc(F)c(F)c1` [Example 42, N-(6-chlorobenzo[d]isoxazol-3-yl)-3,4-difluorobenzamide], for which the inhibition at 10 µM stood at 64%. Still for that read-out and setting: then `O=C(Nc1noc2c(F)cccc12)c1ccc(C(F)(F)F)c(F)c1` [Example 53, 3-fluoro-N-(7-fluorobenzo[d]isoxazol-3-yl)-4-trifluoromethylbenzamide], with 69%; and `O=C(Nc1noc2c(F)cccc12)c1ccc(F)c(F)c1` [Example 59, 3,4-difluoro-N-(7-fluorobenzo[d]isoxazol-3-yl)benzamide], with 67%; and `CN(C)c1cccc2onc(NC(=O)c3cccnc3Cl)c12` [Example 66, 2-chloro-N-(4-dimethylaminobenzo[d]isoxazol-3-yl)nicotinamide], with 64%.

On to `O=C(Nc1noc2cc(Br)ccc12)c1ccc(F)cc1C(F)(F)F` [Example 43, N-(6-bromobenzo[d]isoxazol-3-yl)-4-fluoro-2-trifluoromethylbenzamide], for which the inhibition at 10 µM is 66%. On the same count and under the same terms, the result for `CN(C)c1cccc2onc(NC(=O)c3ccc(F)c(F)c3)c12` [Example 69, N-(4-dimethylaminobenzo[d]isoxazol-3-yl)-3,4-difluorobenzamide] reads 67%; that for `COc1cccc(C(=O)Nc2noc3cccc(N(C)C)c23)c1` [Example 71, N-(4-dimethylaminobenzo[d]isoxazol-3-yl)-3-methoxybenzamide], 65%. Same read-out and setting: the result for `CN(C)c1cccc2onc(NC(=O)C(F)(F)C(F)(F)C(F)(F)F)c12` [Example 76, N-(4-dimethylaminobenzo[d]isoxazol-3-yl)-2,2,3,3,4,4,4-heptafluorobutyramide] reads 67%; that for `COc1cccc(C(=O)Nc2noc3c(F)cccc23)c1` [Example 61, N-(7-fluorobenzo[d]isoxazol-3-yl)-3-methoxybenzamide], 66%. Same read-out and setting: the result for `O=C(Nc1noc2cc(F)ccc12)c1cc(Cl)cc(Cl)c1` [Example 9, 3,5-dichloro-N-(6-fluorobenzo[d]isoxazol-3-yl)benzamide] reads 67%; that for `O=C(Nc1noc2c(F)cccc12)c1cc(F)c(Cl)cc1Cl` [Example 52, 2,4-dichloro-5-fluoro-N-(7-fluorobenzo[d]isoxazol-3-yl)benzamide], 70%; that for `O=C(Nc1noc2c(F)cccc12)c1ccc(F)c(F)c1F` [Example 54, 2,3,4-trifluoro-N-(7-fluorobenzo[d]isoxazol-3-yl)benzamide], 63%. `CN(C)c1cccc2onc(NC(=O)C(c3ccccc3)c3ccccc3)c12` [Example 74, N-(4-dimethylaminobenzo[d]isoxazol-3-yl)-2,2-diphenylacetamide] yielded an inhibition at 10 µM of 70%. For `O=C(Nc1noc2cccc(OCC(F)(F)F)c12)c1cc(F)c(Cl)cc1Cl` [Example 78, 2,4-dichloro-5-fluoro-N-[4-(2,2,2-trifluoroethoxy)benzo[d]isoxazol-3-yl]benzamide], the inhibition at 10 µM worked out at 66%.

`O=C(Nc1noc2c(F)cccc12)c1cccnc1Cl` [Example 56, 2-chloro-N-(7-fluorobenzo[d]isoxazol-3-yl)nicotinamide] displayed an inhibition at 10 µM of 72%. The same measure, in the same setting: the result for `CN(C)c1cccc2onc(NC(=O)c3ccc(F)c(F)c3F)c12` [Example 65, N-(4-dimethylaminobenzo[d]isoxazol-3-yl)-2,3,4-trifluorobenzamide] reads 68%; that for `O=C(Nc1noc2c(F)cccc12)C(c1ccccc1)c1ccccc1` [Example 62, N-(7-fluorobenzo[d]isoxazol-3-yl)-2,2-diphenylacetamide], 63%; that for `O=C(Nc1noc2cc(Br)ccc12)c1cc(F)c(Cl)cc1Cl` [Example 44, 2,4-dichloro-N-(6-bromobenzo[d]isoxazol-3-yl)-5-fluorobenzamide], 61%. The same measure, in the same setting: the result for `CN(C)c1cccc2onc(NC(=O)c3cc(F)c(Cl)cc3Cl)c12` [Example 64, 2,4-dichloro-N-(4-dimethylaminobenzo[d]isoxazol-3-yl)-5-fluorobenzamide] reads 63%; that for `Nc1cccc2onc(NC(=O)c3ccc([N+](=O)[O-])cc3)c12` [Example 10, N-(4-aminobenzo[d]isoxazol-3-yl)-4-nitrobenzamide], 66%; that for `O=C(Nc1noc2c(F)ccc(F)c12)c1ccccc1C(F)(F)F` [Example 51, 7-fluoro-N-(4-fluorobenzo[d]isoxazol-3-yl)-2-trifluoromethylbenzamide], 71%. Same read-out and setting: the result for `CN(C)c1cccc2onc(NC(=O)C(C)(C)C)c12` [Example 72, N-(4-dimethylaminobenzo[d]isoxazol-3-yl)-2,2-dimethylpropionamide] reads 66%; that for `CCCc1ccc(C(=O)Nc2noc3cccc(N(C)C)c23)cc1` [Example 68, N-(4-dimethylaminobenzo[d]isoxazol-3-yl)-4-propylbenzamide], 73%; that for `O=C(Nc1noc2c(F)cccc12)c1cccc(C(F)(F)F)c1F` [Example 60, 2-fluoro-N-(7-fluorobenzo[d]isoxazol-3-yl)-3-trifluoromethylbenzamide], 66%. Take `CN(C)c1cccc2onc(NC(=O)c3cccc(C(F)(F)F)c3F)c12` [Example 70, N-(4-dimethylaminobenzo[d]isoxazol-3-yl)-2-fluoro-3-trifluoromethylbenzamide]: the inhibition at 10 µM was found to be 66%. Regarding `O=C(Nc1noc2cccc(OCC(F)(F)F)c12)c1cccc(C(F)(F)F)c1F` [Example 83, 2-fluoro-N-[4-(2,2,2-trifluoroethoxy)benzo[d]isoxazol-3-yl]-3-trifluoromethyl-benzamide], the inhibition at 10 µM turned out to be 65%. On the same count and under the same terms, then `O=C(Nc1noc2cc(Cl)ccc12)c1ccc(I)cc1` [Example 40, N-(6-chlorobenzo[d]isoxazol-3-yl)-4-iodobenzamide], with 61%.

On to `O=C(Nc1noc2cc(Br)ccc12)c1ccc(F)c(F)c1F` [Example 47, N-(6-bromobenzo[d]isoxazol-3-yl)-2,3,4-trifluorobenzamide], for which the inhibition at 10 µM amounted to 66%.
